Test results: publication PMC11062899, “De novo development of small cyclic peptides that are orally bioavailable” (Nature Chemical Biology, 2023)
Where “and” joins values, the source holds several entries; their conditions need not be identical. Equal entries are not always repeated. Where two headings read alike, the source gives them in different places.

Molecular target: human α-thrombin (Homo sapiens, UniProt P00734)
Test: Protease inhibition, Ki for human α-thrombin (fluorogenic substrate Z-Gly-Gly-Arg-AMC)
Type: biochemical
Settings: for Slope normalized to DMSO (proteolytic substrate cleavage over time): replicates R1-R3; for IC50: read-out: IC50, human alpha thrombin inhibition
In short: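 Inhibition was measured as AMC fluorescence from 50 μM substrate, monitored for 30 min at 25 °C, relative to a peptide-free control. Human and rat enzymes were present at 2 nM and 3 nM final, respectively, in 50 mM Tris-HCl pH 7.4, 150 mM NaCl, 10 mM MgCl2, 1 mM CaCl2. Ki derives from fitted IC50 via Cheng–Prusoff.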

[1] = human alpha thrombin, peptide 1.02E-03 uM
[2] = human alpha thrombin, peptide 1.04E+00 uM
[3] = human alpha thrombin, peptide 1.27E-04 uM
[4] = human alpha thrombin, peptide 1.30E-01 uM
[5] = human alpha thrombin, peptide 1.59E-05 uM
[6] = human alpha thrombin, peptide 1.63E-02 uM
[7] = human alpha thrombin, peptide 1.67E+01 uM
[8] = human alpha thrombin, peptide 2.03E-03 uM
[9] = human alpha thrombin, peptide 2.08E+00 uM
[10] = human alpha thrombin, peptide 2.54E-04 uM
[11] = human alpha thrombin, peptide 2.60E-01 uM
[12] = human alpha thrombin, peptide 3.18E-05 uM
[13] = human alpha thrombin, peptide 3.26E-02 uM
[14] = human alpha thrombin, peptide 3.33E+01 uM
[15] = human alpha thrombin, peptide 4.07E-03 uM
[16] = human alpha thrombin, peptide 4.17E+00 uM
[17] = human alpha thrombin, peptide 5.09E-04 uM
[18] = human alpha thrombin, peptide 5.21E-01 uM
[19] = human alpha thrombin, peptide 6.36E-05 uM
[20] = human alpha thrombin, peptide 6.51E-02 uM
[21] = human alpha thrombin, peptide 6.67E+01 uM
[22] = human alpha thrombin, peptide 7.95E-06 uM
[23] = human alpha thrombin, peptide 8.14E-03 uM
[24] = human alpha thrombin, peptide 8.33E+00 uM
[25] = human alpha thrombin, single replicates R1-R3
[26] = human alpha thrombin, single replicates R1-R3, read-out: Ki, human alpha thrombin inhibition
[27] = human alpha thrombin, average of R1-R3, read-out: Ki Average, human alpha thrombin inhibition

SMILES | Slope normalized to DMSO (proteolytic substrate cleavage over time) [1] | Slope normalized to DMSO (proteolytic substrate cleavage over time) [2] | Slope normalized to DMSO (proteolytic substrate cleavage over time) [3] | Slope normalized to DMSO (proteolytic substrate cleavage over time) [4] | Slope normalized to DMSO (proteolytic substrate cleavage over time) [5] | Slope normalized to DMSO (proteolytic substrate cleavage over time) [6] | Slope normalized to DMSO (proteolytic substrate cleavage over time) [8] | Slope normalized to DMSO (proteolytic substrate cleavage over time) [9] | Slope normalized to DMSO (proteolytic substrate cleavage over time) [10] | Slope normalized to DMSO (proteolytic substrate cleavage over time) [11] | Slope normalized to DMSO (proteolytic substrate cleavage over time) [12] | Slope normalized to DMSO (proteolytic substrate cleavage over time) [13] | Slope normalized to DMSO (proteolytic substrate cleavage over time) [15] | Slope normalized to DMSO (proteolytic substrate cleavage over time) [16] | Slope normalized to DMSO (proteolytic substrate cleavage over time) [17] | Slope normalized to DMSO (proteolytic substrate cleavage over time) [18] | Slope normalized to DMSO (proteolytic substrate cleavage over time) [19] | Slope normalized to DMSO (proteolytic substrate cleavage over time) [20] | IC50 [25] | Ki [26] | other results
O=C1C[C@H]2CCCN2C(=O)[C@H](Cc2ccccc2)NC(=O)[C@@H](NC(=O)c2ccc(Cl)s2)CCCSC/C=C/CSCCN1 [compound 36] | 96.6 and 96.1 and 97.6 | 45.5 and 28.3 and 38.4 | 99.5 and 101.3 and 100.1 | 62.0 and 52.8 and 61.8 | 98.6 and 105.1 and 101.6 | 86.9 and 79.7 and 80.1 | 95.9 and 89.0 and 96.4 | 22.1 and 26.4 and 30.9 | 98.5 and 99.2 and 101.9 | 51.6 and 49.5 and 56.4 | 101.8 and 100.2 and 98.7 | 82.4 (2×) and 76.9 | 100.1 and 90.9 and 93.8 | 10.9 and 18.5 and 22.2 | 105.8 and 102.8 and 98.4 | 63.9 and 55.1 and 63.1 | 96.6 and 96.9 and 98.9 | 69.9 and 61.7 and 72.5 | 453 nM and 218 nM and 444 nM | 349 nM and 168 nM and 342 nM | Ki [27]: 286 nM; Slope normalized to DMSO (proteolytic substrate cleavage over time) [7]: 5.9 and 8.4 and 12.3; Slope normalized to DMSO (proteolytic substrate cleavage over time) [14]: 6.3 and 6.8 and 11.7; Slope normalized to DMSO (proteolytic substrate cleavage over time) [21]: 8.8 and 12.5 and 11.5; Slope normalized to DMSO (proteolytic substrate cleavage over time) [22]: 102.0 and 99.6 and 99.3; Slope normalized to DMSO (proteolytic substrate cleavage over time) [23]: 95.5 and 84.9 and 92.8; Slope normalized to DMSO (proteolytic substrate cleavage over time) [24]: 4.1 and 13.8 and 13.6
O=C1C[C@H]2CCCN2C(=O)[C@H](Cc2ccccc2)NC(=O)[C@@H](NC(=O)c2ccc(Cl)s2)CCSC/C=C/CSCCN1 [compound 34] | 77.8 and 82.6 and 87.7 |  | 85.2 and 86.3 and 97.5 | 23.7 and 29.7 and 31.1 | 99.4 and 93.2 and 99.6 | 62.9 (2×) and 53.3 | 91.1 and 82.2 and 86.6 |  | 95.6 and 96.7 and 91.7 | 14.6 and 25.5 and 20.4 | 103.9 and 99.1 and 101.2 | 46.1 and 40.2 and 49.8 | 82.6 and 77.6 and 83.2 |  | 88.5 and 86.7 and 91.9 | 17.1 and 15.0 | 96.5 and 103.5 and 97.9 | 35.9 and 37.8 and 41.0 | 30.2 nM and 20 nM and 31.5 nM | 23.3 nM (2×) and 15.4 nM (2×) and 24.2 nM (2×) | Ki [27]: 21 nM; Slope normalized to DMSO (proteolytic substrate cleavage over time) [22]: 100.7 and 95.5 and 98.4; Slope normalized to DMSO (proteolytic substrate cleavage over time) [23]: 73.2 and 59.3 and 66.6

The next lines start with results.

Slope normalized to DMSO (proteolytic substrate cleavage over time) [1] | Slope normalized to DMSO (proteolytic substrate cleavage over time) [2] | Slope normalized to DMSO (proteolytic substrate cleavage over time) [3] | Slope normalized to DMSO (proteolytic substrate cleavage over time) [4] | Slope normalized to DMSO (proteolytic substrate cleavage over time) [5] | Slope normalized to DMSO (proteolytic substrate cleavage over time) [6] | Slope normalized to DMSO (proteolytic substrate cleavage over time) [8] | Slope normalized to DMSO (proteolytic substrate cleavage over time) [9] | Slope normalized to DMSO (proteolytic substrate cleavage over time) [10] | Slope normalized to DMSO (proteolytic substrate cleavage over time) [11] | Slope normalized to DMSO (proteolytic substrate cleavage over time) [12] | Slope normalized to DMSO (proteolytic substrate cleavage over time) [13] | Slope normalized to DMSO (proteolytic substrate cleavage over time) [15] | Slope normalized to DMSO (proteolytic substrate cleavage over time) [16] | Slope normalized to DMSO (proteolytic substrate cleavage over time) [17] | Slope normalized to DMSO (proteolytic substrate cleavage over time) [18] | Slope normalized to DMSO (proteolytic substrate cleavage over time) [19] | Slope normalized to DMSO (proteolytic substrate cleavage over time) [20] | IC50 [25] | SMILES | Ki [26] | other results
91.7 and 75.0 and 84.5 | 9.7 and 14.2 and 12.5 | 92.1 and 89.4 and 95.4 | 16.4 and 22.7 and 18.5 | 104.8 and 95.5 and 101.0 | 54.1 and 48.1 and 57.3 | 79.8 and 80.8 and 68.0 | 5.1 and 8.3 and -0.433 | 93.1 and 85.9 and 92.0 | 11.6 and 16.8 and 13.0 | 103.7 and 94.2 and 96.3 | 46.3 and 39.7 and 47.4 | 68.4 and 49.8 and 67.1 | 7.1 and 16.4 and 0.5 | 91.3 and 86.2 and 83.7 | 9.0 and 17.4 and 10.1 | 103.6 and 90.9 and 101.0 | 26.8 and 23.7 and 23.8 | 13.6 nM and 7.3 nM and 13.8 nM | O=C1C[C@H]2CCCN2C(=O)[C@H](Cc2ccccc2)NC(=O)[C@@H](NC(=O)c2ccc(Cl)s2)CSC/C=C/CSCCN1 [peptide 32] | 10.4 nM (2×) and 5.65 nM (2×) and 10.6 nM (2×) | Slope normalized to DMSO (proteolytic substrate cleavage over time) [7]: 4.0 and 6.4 and 1.8; Slope normalized to DMSO (proteolytic substrate cleavage over time) [14]: -4.9 and 8.0 and -5.2; Slope normalized to DMSO (proteolytic substrate cleavage over time) [21]: 5.5 and 8.8 and 5.2; Slope normalized to DMSO (proteolytic substrate cleavage over time) [22]: 105.4 and 96.7 and 100.1; Slope normalized to DMSO (proteolytic substrate cleavage over time) [23]: 56.5 and 45.5 and 52.6; Slope normalized to DMSO (proteolytic substrate cleavage over time) [24]: -1.1 and 9.3 and 3.5; Ki (purified peptide, mean and s.d. of three measurements, read-out: Ki human α-thrombin): 8.9 ± 2.3 nM
93.6 and 100.9 and 97.6 | 8.6 and 16.9 and 12.9 | 93.4 and 102.6 and 100.9 | 39.5 and 49.3 and 44.8 | 106.2 and 101.5 and 96.8 | 75.0 and 77.8 and 78.6 | 88.5 and 91.4 and 92.0 | 6.1 and 11.4 and 10.4 | 95.8 and 99.6 and 97.3 | 30.6 and 32.4 and 32.2 | 97.7 and 98.2 and 93.3 | 69.6 and 73.9 and 66.3 | 82.9 and 85.6 and 85.5 | 2.6 and 6.0 and 6.1 | 91.0 and 91.5 and 96.2 | 17.9 and 15.7 and 18.4 | 96.3 and 98.6 and 101.5 | 47.1 and 63.8 and 53.5 | 77.8 nM and 89.4 nM and 77.2 nM | O=C1C[C@H]2CCCN2C(=O)[C@H](Cc2ccccc2)NC(=O)[C@@H](NC(=O)c2ccc(Cl)s2)CCCSCc2cccc(n2)CSCCN1 [compound 35] | 59.9 nM (2×) and 68.9 nM (2×) and 59.5 nM (2×) | Ki [27]: 62.8 nM; Slope normalized to DMSO (proteolytic substrate cleavage over time) [7]: -7.7 and 7.5 and 5.3; Slope normalized to DMSO (proteolytic substrate cleavage over time) [14]: 2.9 and 7.3 and 3.8; Slope normalized to DMSO (proteolytic substrate cleavage over time) [21]: 2.7 and 9.5 and 7.0; Slope normalized to DMSO (proteolytic substrate cleavage over time) [22]: 96.2 and 102.7 and 103.6; Slope normalized to DMSO (proteolytic substrate cleavage over time) [23]: 70.3 and 73.9 and 78.9; Slope normalized to DMSO (proteolytic substrate cleavage over time) [24]: 3.3 and 5.4 and 3.6
102.8 and 91.6 and 92.3 | 41.6 and 46.5 and 44.1 | 104.6 and 98.9 and 94.9 | 89.0 and 82.0 and 80.6 | 106.7 and 95.1 and 97.4 | 99.4 and 97.2 and 88.2 | 103.4 and 94.4 and 88.8 | 29.1 and 35.9 and 29.9 | 103.3 and 99.1 and 91.3 | 77.6 and 74.7 and 72.2 | 106.8 and 94.8 and 91.3 | 96.6 and 90.1 and 84.7 | 86.5 and 95.5 and 89.4 | 17.9 and 25.7 and 18.3 |  | 60.8 and 59.2 and 52.4 | 98.6 and 95.0 and 94.0 | 91.4 and 89.0 and 83.1 | 700 nM and 850 nM and 816 nM | O=C1C[C@H]2CCCN2C(=O)[C@H](Cc2ccccc2)NC(=O)[C@@H](NC(=O)c2ccc(Cl)s2)CSCc2cccc(n2)CSCCN1 [compound 31] | 540 nM and 655 nM and 629 nM | Ki [27]: 608 nM
